For the test, the target named is T1, α4β7 integrin (Homo sapiens, UniProt P13612+P26010).
T1 construct: monitoring the capture of α4β7 integrin expressing cells on a recombinant MadCAM-1 extracellular domain-coated plate; endogenous in cells; host or cells: RPMI8866 cells
T1 sequence (P13612 34-1032): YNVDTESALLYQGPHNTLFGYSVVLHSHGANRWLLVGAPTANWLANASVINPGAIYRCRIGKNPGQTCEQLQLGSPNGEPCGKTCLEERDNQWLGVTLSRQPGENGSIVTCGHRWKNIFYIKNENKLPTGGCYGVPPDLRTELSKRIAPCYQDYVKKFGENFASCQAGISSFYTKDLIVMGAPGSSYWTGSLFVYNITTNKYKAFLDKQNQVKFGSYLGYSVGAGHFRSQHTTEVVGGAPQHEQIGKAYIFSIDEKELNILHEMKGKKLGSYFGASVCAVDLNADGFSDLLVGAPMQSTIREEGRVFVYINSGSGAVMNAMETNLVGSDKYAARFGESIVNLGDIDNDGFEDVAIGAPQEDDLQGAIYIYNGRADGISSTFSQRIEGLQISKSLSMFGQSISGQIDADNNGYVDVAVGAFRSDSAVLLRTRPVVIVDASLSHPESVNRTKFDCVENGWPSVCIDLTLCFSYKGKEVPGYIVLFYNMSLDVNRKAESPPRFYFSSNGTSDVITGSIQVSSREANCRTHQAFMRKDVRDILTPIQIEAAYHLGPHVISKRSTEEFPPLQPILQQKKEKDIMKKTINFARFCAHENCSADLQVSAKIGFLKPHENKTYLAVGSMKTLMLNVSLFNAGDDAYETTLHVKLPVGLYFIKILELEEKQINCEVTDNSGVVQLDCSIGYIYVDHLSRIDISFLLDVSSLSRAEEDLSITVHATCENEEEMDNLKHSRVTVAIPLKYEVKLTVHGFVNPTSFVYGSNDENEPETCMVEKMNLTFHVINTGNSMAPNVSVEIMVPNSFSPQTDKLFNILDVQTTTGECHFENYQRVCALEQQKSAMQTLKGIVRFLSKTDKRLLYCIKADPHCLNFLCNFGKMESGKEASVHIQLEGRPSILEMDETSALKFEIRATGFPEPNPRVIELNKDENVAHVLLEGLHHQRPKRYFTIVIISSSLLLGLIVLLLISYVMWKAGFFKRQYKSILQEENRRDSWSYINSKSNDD
T1 sequence (P26010 20-798): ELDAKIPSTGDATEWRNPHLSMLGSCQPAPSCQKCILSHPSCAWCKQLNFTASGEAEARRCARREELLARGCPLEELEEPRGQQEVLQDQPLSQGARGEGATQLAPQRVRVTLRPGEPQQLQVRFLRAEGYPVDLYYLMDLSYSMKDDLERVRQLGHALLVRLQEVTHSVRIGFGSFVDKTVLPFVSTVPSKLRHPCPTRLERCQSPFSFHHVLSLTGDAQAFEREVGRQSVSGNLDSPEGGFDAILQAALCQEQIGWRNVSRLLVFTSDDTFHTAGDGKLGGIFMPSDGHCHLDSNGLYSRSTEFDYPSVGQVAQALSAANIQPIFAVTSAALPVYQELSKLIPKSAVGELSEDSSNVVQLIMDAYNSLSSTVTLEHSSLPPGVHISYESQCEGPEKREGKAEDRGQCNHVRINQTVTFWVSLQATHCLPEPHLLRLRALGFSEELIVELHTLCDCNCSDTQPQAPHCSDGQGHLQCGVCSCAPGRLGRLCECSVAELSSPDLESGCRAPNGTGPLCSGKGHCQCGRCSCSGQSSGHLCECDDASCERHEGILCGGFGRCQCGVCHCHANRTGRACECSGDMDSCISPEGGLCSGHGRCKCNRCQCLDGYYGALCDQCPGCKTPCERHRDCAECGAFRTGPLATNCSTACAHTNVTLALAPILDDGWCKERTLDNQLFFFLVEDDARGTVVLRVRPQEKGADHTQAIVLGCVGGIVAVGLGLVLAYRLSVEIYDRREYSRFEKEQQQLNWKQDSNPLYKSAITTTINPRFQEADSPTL
As to the kind of experiment: α4β7 Integrin Cell Capture Assay. In kind it is cell-based. The conditions noted are these: capture of α4β7 integrin expressing RPMI8866 cells on recombinant MadCAM-1 extracellular domain-coated plate; DMEM+0.5% FBS+0.5 mM MnCl2; read-out: EC50 α4β7. In outline:
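RPMI8866 cells in DMEM + 0.5% FBS + 0.5 mM MnCl2 preincubated with compound 1 h at 37 °C, then allowed to bind 30 min at 37 °C to plates coated with MAdCAM-1 extracellular domain (1.0 μg/mL). Cells fixed with glutaraldehyde, Hoechst-stained, imaged and bound cells counted; EC50 from cell count versus concentration.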
For the compound `CCOCc1cc(OC)c(-c2ncc(C[C@H](NC(=O)c3c(F)cc(N[C@H](CC)C(F)(F)F)cc3F)C(=O)O)c3ccccc23)c(OC)c1` [Example 168, (S)-2-(2,6-difluoro-4-(((R)-1,1,1-trifluorobutan-2-yl)amino)benzamido)-3-(1-(4-(ethoxymethyl)-2,6-dimethoxyphenyl)isoquinolin-4-yl)propanoic acid], the concentration for a half-maximal effect (EC50) is 26.6 nM. As for `O=C(N[C@@H](Cc1ccc(-c2c(Cl)cc(F)cc2Cl)c2c1C=CCO2)C(=O)O)c1c(Cl)cccc1Cl` [Example 169, (S)-3-(8-(2,6-dichloro-4-fluorophenyl)-2H-chromen-5-yl)-2-(2,6-dichlorobenzamido)propanoic acid], the EC50 came to 142 nM.

Consider `CC1(C)C=Cc2c(C[C@H](NC(=O)c3c(Cl)cccc3Cl)C(=O)O)ccc(-c3c(Cl)cc(F)cc3Cl)c2O1` [Example 170, (S)-3-(8-(2,6-dichloro-4-fluorophenyl)-2,2-dimethyl-2H-chromen-5-yl)-2-(2,6-dichlorobenzamido)propanoic acid], for which the EC50 was found to be 206 nM. `Cc1nc(-c2ccc(C[C@H](NC(=O)c3c(F)cc(N4CCOC[C@@H]4C(F)(F)F)cc3F)C(=O)O)c3ccccc23)c(=O)n(C)c1C` [Example 177]: the EC50 was 0.22 nM. As to `Cc1cc(N2CCOC[C@@H]2C(F)(F)F)cc(F)c1C(=O)N[C@@H](Cc1ccc(-n2c(=O)c3ccncc3n(C)c2=O)n2nccc12)C(=O)O` [Example 180], the EC50 amounted to 0.09 nM.

A word on the EC50: it is the concentration needed to bring the measured effect to its halfway point.

Values taken from US11179383B2 (Gilead Sciences, Inc., priority 2018, dated 2021).
